Assay results reported in US4904659A, “Substituted quinoline derivatives and pharmaceutical compositions thereof” (Development Finance Corporation of New Zeland, priority 1985, dated 1990).
Read-outs that look alike come from different tables or passages of the source.

What was measured:
bacterial cell lines = test: In vitro antibacterial activity; assay type: cell-based; conditions: a number of bacterial cell lines
P388 leukemia = test: In vivo antitumour activity against P388 leukemia (cells inoculated intraperitoneally); parameters: species or system mice (F1 hybrids of DBA/2J male x C57BL/6J female); conditions: for P388 in vivo ILS (percentage increase in lifespan) / P388 in vivo Active: P388 leukemia; for P388 in vivo ILS (percentage increase in lifespan): at optimal dose (OD), intraperitoneal, days 1, 5 and 9, control survival 11 days; for P388 in vivo Active: at the stated dose, ILS greater than 20% significant
Protocol: (§1) OD--The optimal drug dose (in milligrams per kilogram), administered intraperitoneally as a solution in 0.1 ml of 30% v/v ethyl alcohol in water on days 1, 5 and 9 after tumour inoculation. The drug is administered as a soluble acid addition salt.
(§2) ILSmax--The percentage increase in lifespan of treated animals over that of control animals injected with tumour alone. The average survival of control mice was 11 days (for P388 leukemia) and 17 days (for Lewis lung carcinoma) ILS values greater than 20% (P388 leukemia) and 40% (Lewis lung carcinoma) are considered statistically significant. Numbers in parentheses after ILS values indicate the number of long-term survivors (out of a group of 6).
(§3) Y--Implies a significant value of drug activity at the stated dose.
(§4) N--Implies no statistically significant activity.
(§5) Both of these tumour lines were obtained as frozen cell stocks from Mason Research Inc., USA and are passaged intraperitoneally in DBA/25 mice of either sex (P388) or subcutaneously in C57BL/65 mice of either sex (LL) according to the standard methods (Cancer Chemother. Reports., 3, Part 3, p9, 1972).
(§6) Groups of six mice (F1 hybrids of DBA/2J male x C57BL/6J female) were injected intraperitoneally (P388) or intravenously (tail vein, LL), with 10^6 tumour cells on day 0. When given in this manner, P388 cells grow diffusely in the peritoneal cavity, whereas the Lewis lung cells from distinct solid tumour nodules in the lungs. Antitumour activity is determined by published methods (European J. Cancer, 19, pp.1607-1613, 1983).

Lewis lung carcinoma = test: In vivo antitumour activity against Lewis lung carcinoma (cells inoculated intravenously); parameters: species or system mice (F1 hybrids of DBA/2J male x C57BL/6J female); conditions: for LL in vivo ILS (percentage increase in lifespan) / LL in vivo Active: Lewis lung carcinoma; for LL in vivo ILS (percentage increase in lifespan): at optimal dose (OD), intraperitoneal, days 1, 5 and 9, control survival 17 days; for LL in vivo Active: at the stated dose, ILS greater than 40% significant; for LL in vivo number of long-term survivors: number in parentheses after ILS, out of a group of 6, Lewis lung carcinoma
Protocol: as §1, §2, §3, §4
LL--Is the Lewis lung carcinoma.
as §5, §6

[1] = Rm: lipophilic-hydrophilic balance from reversed phase partition chromatography; assay type: physicochemical; conditions: linearly related to 1-octanol/water partition coefficients
Source text: Rm-a measure of the compound's liphophilic-hydrophilic balance from reversed phase partition chromatography. Rm is linearly related to partition coefficients obtained in the 1-octanol/water system.

L1210 leukemia cells = test: Growth inhibition of cultured L1210 leukemia cells (70 h, counted cell numbers); assay type: cell-based; conditions: Mus musculus, read-out: In vitro L1210 (IC50)

## CN(C)CCNC(=O)c1cccc2ccc(-c3ccccc3)nc12 [Compound 1]
Bacterial cell lines
  antibacterial activity: show in vitro activity against a number of bacterial cell lines
P388 leukemia
  P388 in vivo ILS (percentage increase in lifespan): 91%
  P388 in vivo Active: Y (Implies a significant value of drug activity at the stated dose)
Lewis lung carcinoma
  LL in vivo ILS (percentage increase in lifespan): 70%
  LL in vivo Active: Y (Implies a significant value of drug activity at the stated dose)
  LL in vivo number of long-term survivors: 4
[1]
  chromatographic logP: -0.01
L1210 leukemia cells; L1210, 70 h
  IC50: 1.3 µM

## CN(C)CCNC(=O)c1cccc2ccc(-c3ccncc3)nc12 [Compound 12]
Bacterial cell lines
  antibacterial activity: show in vitro activity against a number of bacterial cell lines
P388 leukemia
  P388 in vivo ILS (percentage increase in lifespan): 145%
  P388 in vivo Active: Y (Implies a significant value of drug activity at the stated dose)
P388 leukemia; number in parentheses after ILS, out of a group of 6, P388 leukemia
  P388 in vivo number of long-term survivors: 2
Lewis lung carcinoma
  LL in vivo ILS (percentage increase in lifespan): 132%
  LL in vivo Active: Y (Implies a significant value of drug activity at the stated dose)
  LL in vivo number of long-term survivors: 3
[1]
  chromatographic logP: -0.87
L1210 leukemia cells; L1210 leukemia cells, 70 h, cell numbers reduced to 50% of controls
  IC50: 0.17 µM
